In US20110311455A1, “EN[…] GUIDED IMAGING AND […]” (THE REGENTS OF THE UNIVERSITY OF CALIFORNIA, priority 2008, published 2011):

System: normal human bronchial epithelial cells (LHS-9)
Experiment: Cellular fluorescence imaging of cells incubated with OVG's or free ICG
Assay type: cell-based
Conditions: 2 hr post-incubation; ICG 10 μg/ml
Method: The cells were cultured for 24 hours in serum free culture medium supplied by the commercial vendor. […] An optical filter that allowed transmission of NIR light greater than 780 nm was used to capture the fluorescent signal onto a CCD camera.

CC1(C)C(/C=C/C=C/C=C/C=C2\N(CCCCS(=O)(=O)O)c3ccc4ccccc4c3C2(C)C)=[N+](CCCCS(=O)(=O)[O-])c2ccc3ccccc3c21 [ICG, indocyanine green]
localization in cells (confocal fluorescent images): remains mostly localized to the “rim” of the cells
